Source: ChEMBL document CHEMBL1137593, “Identification and optimisation of a series of substituted 5-pyridin-2-yl-thiophene-2-hydroxamic acids as potent histone deacetylase (HDAC) inhibitors” (Bioorg Med Chem Lett, 2007)
Blank lines part the entries; values can stand above or below the compound they belong to.

Columns and labels:
MCF7 = experiment: Inhibition of MCF7 cell proliferation (mean of two experiments); assay type: functional, cell-based; conditions: Homo sapiens
Histone deacetylase 1 = Histone deacetylase 1 (Homo sapiens, UniProt Q13547); experiment: Inhibition of HDAC activity measured by HDAC Fluorescent Activity Assay (mean of two experiments); assay type: functional
MDA-MB-231 = experiment: cells; assay type: functional, cell-based; conditions: Homo sapiens
Description: Inhibition of MDA-MB-231 cell proliferation (mean of two experiments)

HCT-116 = experiment: cells; assay type: functional, cell-based; conditions: Homo sapiens;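 further: inhibition of HCT116 cell growth as proliferation read-out, each value averaged over two experiments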
Description: Inhibition of HCT116 cell proliferation (mean of two experiments)

Mus musculus [1] = experiment: (§1) AUC after oral dosing at 5 mg kg-1; assay type: ADME, organism-based, Plasma; set-up: dose 5 mg kg-1, route oral; conditions: in vivo
CYP1A2 = molecular target: T1, CYP1A2 (Homo sapiens, UniProt P05177); experiment: Percent inhibition of CYP450 1A2 at 1 uM concentration; assay type: ADME
T1 sequence (P05177 whole entry): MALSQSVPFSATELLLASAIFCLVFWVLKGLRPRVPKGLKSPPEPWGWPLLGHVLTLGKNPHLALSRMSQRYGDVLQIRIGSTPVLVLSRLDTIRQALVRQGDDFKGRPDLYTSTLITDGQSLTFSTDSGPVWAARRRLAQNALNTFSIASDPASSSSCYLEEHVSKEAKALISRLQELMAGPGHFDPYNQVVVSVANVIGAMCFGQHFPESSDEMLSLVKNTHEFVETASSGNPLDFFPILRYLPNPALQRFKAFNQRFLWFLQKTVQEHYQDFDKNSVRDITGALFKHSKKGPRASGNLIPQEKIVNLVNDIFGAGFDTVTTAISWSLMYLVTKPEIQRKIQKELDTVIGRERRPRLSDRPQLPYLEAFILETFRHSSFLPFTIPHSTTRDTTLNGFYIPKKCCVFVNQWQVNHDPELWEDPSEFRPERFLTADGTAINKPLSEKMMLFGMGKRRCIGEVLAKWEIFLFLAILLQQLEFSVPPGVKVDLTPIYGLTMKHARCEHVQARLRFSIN

[2] = Microsome stability: percent compound remaining; assay type: ADME; conditions: microsomes
[3] = Permeability (Papp) run from pH 6.5-7.4; assay type: ADME, cell-based; conditions: human, Caco-2, pH 6.5
[4] = AUC after i.p. dosing at 5 mg kg-1; assay type: ADME, organism-based; set-up: dose 5 mg kg-1, route intraperitoneal; conditions: mouse, plasma, ip
CYP2C19 = CYP2C19 (Homo sapiens, UniProt P33261); experiment: Percent inhibition of CYP450 2C19 at 1 uM concentration; assay type: ADME
[5] = Bioavailability after i.p. dosing at 5 mg kg-1; assay type: ADME, organism-based; conditions: mouse, in vivo, ip
[6] = Half life after i.v. dosing at 1 mg kg-1; assay type: ADME, organism-based; set-up: dose 1 mg kg-1, route intravenous; conditions: in vivo, iv
CYP2D6 = CYP2D6 (Homo sapiens, UniProt P10635); experiment: Percent inhibition of CYP450 2D6 at 1uM concentration; assay type: ADME
[7] = (§2) Clearance after i.v. dosing at 1 mg kg-1; assay type: ADME, organism-based; set-up: dose 1 mg kg-1, route intravenous; conditions: in vivo, iv
Mus musculus [8] = experiment: as §2; assay type: ADME, organism-based; set-up: dose 1 mg kg-1, route intravenous; conditions: in vivo, iv
CYP2C9 = CYP2C9 (Homo sapiens, UniProt P11712); experiment: Percent inhibition of CYP450 2C9 at 1 uM concentration; assay type: ADME
[9] = as §1; assay type: ADME, organism-based; set-up: dose 5 mg kg-1, route oral; conditions: rat, plasma
[10] = Steady state volume of distribution (Vdss) after i.v. dosing at 1 mg kg-1; assay type: ADME, organism-based; set-up: dose 1 mg kg-1, route intravenous; conditions: in vivo, iv, read-out: Vdss
Cytochrome P450 3A4 = Cytochrome P450 3A4 (Homo sapiens, UniProt P08684); experiment: Inhibition of CYP450 3A4; assay type: ADME
[11] = Hepatocyte stability; assay type: ADME, cell-based; conditions: hepatocytes
[12] = (§3) Oral bioavailability after oral dosing at 5 mg kg-1; assay type: ADME, organism-based; conditions: in vivo
Mus musculus [13] = experiment: as §3; assay type: ADME, organism-based; conditions: in vivo
[14] = as §1; assay type: ADME, organism-based, Plasma; set-up: dose 5 mg kg-1, route oral; conditions: mouse, plasma

Histone deacetylase 1, sequence (Q13547 whole entry): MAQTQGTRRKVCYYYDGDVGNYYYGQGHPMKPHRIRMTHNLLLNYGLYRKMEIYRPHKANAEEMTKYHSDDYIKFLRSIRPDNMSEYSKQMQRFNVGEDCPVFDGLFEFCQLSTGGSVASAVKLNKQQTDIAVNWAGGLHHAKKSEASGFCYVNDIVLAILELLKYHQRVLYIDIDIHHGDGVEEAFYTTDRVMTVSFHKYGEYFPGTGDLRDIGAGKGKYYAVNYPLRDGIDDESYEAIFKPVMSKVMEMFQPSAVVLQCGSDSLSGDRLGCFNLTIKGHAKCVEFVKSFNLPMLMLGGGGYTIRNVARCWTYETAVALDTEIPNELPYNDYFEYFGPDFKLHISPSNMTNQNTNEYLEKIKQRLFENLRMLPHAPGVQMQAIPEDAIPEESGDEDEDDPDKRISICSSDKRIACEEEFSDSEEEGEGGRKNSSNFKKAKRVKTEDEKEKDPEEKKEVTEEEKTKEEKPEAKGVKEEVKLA
CYP2C9, sequence (P11712 whole entry): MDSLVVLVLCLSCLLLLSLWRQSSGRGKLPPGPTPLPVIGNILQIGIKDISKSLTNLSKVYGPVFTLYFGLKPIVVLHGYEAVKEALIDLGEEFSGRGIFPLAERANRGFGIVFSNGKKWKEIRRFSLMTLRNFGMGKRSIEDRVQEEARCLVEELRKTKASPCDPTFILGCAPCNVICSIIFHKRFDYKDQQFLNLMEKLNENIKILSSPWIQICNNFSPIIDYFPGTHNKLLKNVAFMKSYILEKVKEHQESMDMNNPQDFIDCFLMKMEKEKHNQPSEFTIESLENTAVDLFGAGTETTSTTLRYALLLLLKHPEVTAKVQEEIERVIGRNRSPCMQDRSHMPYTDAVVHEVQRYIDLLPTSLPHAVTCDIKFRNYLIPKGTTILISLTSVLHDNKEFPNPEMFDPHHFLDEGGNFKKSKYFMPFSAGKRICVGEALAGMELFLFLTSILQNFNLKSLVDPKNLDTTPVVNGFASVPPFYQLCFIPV
Cytochrome P450 3A4, sequence (P08684 whole entry): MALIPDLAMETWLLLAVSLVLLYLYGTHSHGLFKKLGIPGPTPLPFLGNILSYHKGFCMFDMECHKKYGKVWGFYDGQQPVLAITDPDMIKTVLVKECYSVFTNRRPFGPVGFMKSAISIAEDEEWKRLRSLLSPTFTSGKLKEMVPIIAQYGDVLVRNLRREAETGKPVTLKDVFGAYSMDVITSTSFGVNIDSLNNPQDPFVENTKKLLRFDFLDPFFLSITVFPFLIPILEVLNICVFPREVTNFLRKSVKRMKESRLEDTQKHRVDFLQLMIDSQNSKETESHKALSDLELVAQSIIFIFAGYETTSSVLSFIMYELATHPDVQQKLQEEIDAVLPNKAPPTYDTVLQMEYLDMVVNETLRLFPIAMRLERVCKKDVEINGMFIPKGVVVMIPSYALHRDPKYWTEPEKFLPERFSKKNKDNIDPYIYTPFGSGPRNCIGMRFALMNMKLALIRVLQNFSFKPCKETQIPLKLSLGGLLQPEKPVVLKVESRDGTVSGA
CYP2D6, sequence (P10635 whole entry): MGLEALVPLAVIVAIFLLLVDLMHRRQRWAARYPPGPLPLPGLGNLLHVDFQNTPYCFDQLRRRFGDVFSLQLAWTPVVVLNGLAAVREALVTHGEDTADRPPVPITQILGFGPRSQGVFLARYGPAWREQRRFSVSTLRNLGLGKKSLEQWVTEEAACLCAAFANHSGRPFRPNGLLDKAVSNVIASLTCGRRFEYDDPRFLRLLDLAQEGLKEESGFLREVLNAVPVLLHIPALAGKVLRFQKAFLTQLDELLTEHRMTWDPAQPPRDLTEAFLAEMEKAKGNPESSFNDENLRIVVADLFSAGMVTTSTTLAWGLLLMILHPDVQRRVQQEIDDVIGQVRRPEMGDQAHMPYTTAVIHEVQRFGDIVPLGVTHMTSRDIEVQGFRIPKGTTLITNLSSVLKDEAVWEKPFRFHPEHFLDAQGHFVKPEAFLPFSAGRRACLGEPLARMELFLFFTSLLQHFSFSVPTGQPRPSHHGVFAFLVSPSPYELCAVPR
CYP2C19, sequence (P33261 whole entry): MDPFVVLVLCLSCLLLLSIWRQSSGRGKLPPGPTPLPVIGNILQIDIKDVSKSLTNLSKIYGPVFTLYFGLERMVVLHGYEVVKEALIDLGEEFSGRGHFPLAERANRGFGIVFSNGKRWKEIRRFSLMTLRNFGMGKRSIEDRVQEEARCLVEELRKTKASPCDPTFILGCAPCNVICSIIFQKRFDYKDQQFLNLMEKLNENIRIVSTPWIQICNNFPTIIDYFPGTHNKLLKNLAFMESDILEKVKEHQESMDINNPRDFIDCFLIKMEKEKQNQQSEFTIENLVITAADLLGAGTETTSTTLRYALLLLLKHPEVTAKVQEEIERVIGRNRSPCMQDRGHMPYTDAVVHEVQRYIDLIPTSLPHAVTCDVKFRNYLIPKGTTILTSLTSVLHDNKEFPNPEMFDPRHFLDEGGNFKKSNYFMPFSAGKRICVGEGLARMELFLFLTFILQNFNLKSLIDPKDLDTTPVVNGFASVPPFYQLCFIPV

SMILES: O=C(NO)c1ccc(-c2ccccc2)s1
IC50 (MCF7): 31000 nM | IC50 (Histone deacetylase 1): 900 nM

SMILES: O=C(NO)c1ccc(-c2ccccn2)s1
IC50 (MDA-MB-231): 11000 nM | IC50 (MCF7): 2250 nM | IC50 (Histone deacetylase 1): 243 nM

SMILES: O=C(NO)c1ccc(-c2ccc(CNCc3ccc4c(c3)OCCO4)cn2)s1
IC50 (HCT-116): 90 nM | IC50 (MCF7): 50 nM | IC50 (Histone deacetylase 1): 11 nM

SMILES: O=C(NO)c1ccc(-c2ccc(CNCCc3ccccc3Cl)cn2)s1
IC50 (HCT-116): 80 nM | IC50 (MCF7): 80 nM | IC50 (Histone deacetylase 1): 6 nM

SMILES: O=C(NO)c1ccc(-c2ccc(CCNCc3ccccc3)cn2)s1
IC50 (MDA-MB-231): 210 nM | IC50 (MCF7): 80 nM | IC50 (Histone deacetylase 1): 9 nM

SMILES: O=C(NO)c1ccc(-c2ccc(CNCCc3ccccc3F)cn2)s1
IC50 (HCT-116): 100 nM | IC50 (MCF7): 90 nM | IC50 (Histone deacetylase 1): 12 nM

SMILES: O=C(NO)c1ccc(-c2cccc(CNCCc3ccccc3)n2)s1
IC50 (MCF7): 3840 nM | IC50 (Histone deacetylase 1): 581 nM

SMILES: O=C(NO)c1ccc(-c2ccc(CNCc3ccccc3)cn2)s1
AUC [14]: 360 ng·h/mL | inhibition at 1 µM (CYP1A2): 17% | Percent remaining ([2]; human): 88% | Percent remaining ([2]; mouse): 35% | Papp [3]: 15.4 ×10⁻⁶ cm/s | AUC [4]: 1250 ng·h/mL | inhibition at 1 µM (CYP2C19): -4% | bioavailability [5]: 100% | IC50 (HCT-116): 110 nM | half-life ([6]; mouse): 0.17 h | half-life ([6]; rat): 2.7 h | IC50 (MDA-MB-231): 220 nM | inhibition at 1 µM (CYP2D6): 1% | IC50 (MCF7): 80 nM | clearance ([7]; mouse): 83 mL/min/kg | clearance ([7]; rat): 13 mL/min/kg | inhibition at 1 µM (CYP2C9): -14% | AUC [9]: 3300 ng·h/mL | Vd ([10]; mouse): 1.1 L/kg | Vd ([10]; rat): 2.9 L/kg | IC50 (Histone deacetylase 1): 16 nM | IC50 (Cytochrome P450 3A4): 26000 nM | Hepatocyte stability ([11]; human): 7 uL/min/10e6 cells | Hepatocyte stability ([11]; rat): 27 uL/min/10e6 cells | bioavailability ([12]; mouse): 36% | bioavailability ([12]; rat): 50%

SMILES: O=C(NO)c1ccc(-c2ccc(CNCCCc3ccccc3)cn2)s1
IC50 (MDA-MB-231): 250 nM | IC50 (MCF7): 120 nM | IC50 (Histone deacetylase 1): 18 nM

SMILES: Cc1ccccc1CCNCc1ccc(-c2ccc(C(=O)NO)s2)nc1
IC50 (HCT-116): 70 nM | IC50 (MCF7): 90 nM | IC50 (Histone deacetylase 1): 8 nM

SMILES: O=C(NO)c1ccc(-c2cccs2)s1
IC50 (MCF7): > 100000 nM | IC50 (Histone deacetylase 1): 2500 nM

SMILES: O=C(NO)c1ccc(-c2ccc(CNCCc3cccc4occc34)cn2)s1
IC50 (HCT-116): 120 nM | IC50 (MCF7): 60 nM | IC50 (Histone deacetylase 1): 4 nM

The next lines start with the values.

IC50 (HCT-116): 140 nM | IC50 (MCF7): 90 nM | IC50 (Histone deacetylase 1): 13 nM
SMILES: O=C(NO)c1ccc(-c2ccc(CCNCc3ccc(F)cc3)cn2)s1

IC50 (MDA-MB-231): 200 nM | IC50 (MCF7): 70 nM | IC50 (Histone deacetylase 1): 12 nM
SMILES: O=C(NO)c1ccc(-c2ccc(CNCCc3ccccc3)cn2)s1

IC50 (MDA-MB-231): 370 nM | IC50 (MCF7): 150 nM | IC50 (Histone deacetylase 1): 35 nM
SMILES: CN(Cc1ccccc1)Cc1ccc(-c2ccc(C(=O)NO)s2)nc1

IC50 (MDA-MB-231): 170 nM | IC50 (MCF7): 110 nM | IC50 (Histone deacetylase 1): 7 nM
SMILES: O=C(NO)c1ccc(-c2ccc(CNCc3ccccc3Cl)cn2)s1

IC50 (HCT-116): 100 nM | IC50 (MCF7): 80 nM | IC50 (Histone deacetylase 1): 9 nM
SMILES: O=C(NO)c1ccc(-c2ccc(CNCCc3ccc(F)cc3)cn2)s1

AUC (Mus musculus [1]): 900 ng·h/mL | inhibition at 1 µM (CYP1A2): 9% | Percent remaining ([2]; human): 55% | Percent remaining ([2]; mouse): 5% | Papp [3]: 4.2 ×10⁻⁶ cm/s | AUC [4]: 7200 ng·h/mL | inhibition at 1 µM (CYP2C19): 71% | bioavailability [5]: 85% | half-life ([6]; mouse): 2.5 h | half-life ([6]; rat): 1.6 h | inhibition at 1 µM (CYP2D6): 8% | clearance ([7]; rat): 21 mL/min/kg | CL (Mus musculus [8]): 10 mL/min/kg | inhibition at 1 µM (CYP2C9): 0% | AUC [9]: 100 ng·h/mL | Vd ([10]; mouse): 0.4 L/kg | Vd ([10]; rat): 0.9 L/kg | IC50 (Cytochrome P450 3A4): 53000 nM | Hepatocyte stability ([11]; human): 15 uL/min/10e6 cells | Hepatocyte stability ([11]; rat): 26 uL/min/10e6 cells | bioavailability ([12]; rat): 2% | F (Mus musculus [13]): 1%
SMILES: O=C(NO)c1ccc(-c2ccn(CCNCc3ccc4c(c3)OCO4)n2)s1
